Data: EP0528615A1, “Cribrostatins 1 and 2” (ARIZONA BOARD OF REGENTS, priority 1991, dated 1993)
Converted amounts (≈) assume the structure as drawn.

Experiments:
[1] = tested on: melanoma cancer line (LOX-1MCI; MALME-3M; M14; M19-MEL; SK-MEL-2; KS-MEL-28; SK-MEL-5; UACC_257; UACC-62); assay type: cell-based, human
Description: (§1) Presently the Cribrochalina sp. constituents are undergoing detailed antineoplastic evaluation. […] (See: Boyd, status of the NCI preclinical antitumor drug discovery screen: implications for selection of new agents for clinical trial. In: DeVita et al., Principles and Practices of Oncology, update series, Vol. 3, No. 10, Lippincott, Philadelphia 1989, pp1-12; and Boyd et al., Data display and analysis strategies from NCI disease oriented in vitro antitumor drug screen. In:Valeriote et al., Antitumor Drug Discovery and Development, Kluwer Academic Press, Amsterdam, 1990.) The human tumor cell line panel currently used for these studies consists of a diverse array of 60 different cell lines representing eight major cancer subtypes.

[2] = tested on: NCI human cancer cell lines; assay: NCI human cancer cell lines, cytostatic activity (general statement); assay type: cell-based
Description: as §1

[3] = tested on: non-small lung cancer (A549/ATCC, HOP-18, and NCI-H460); assay: NCI panel cell lines, non-small lung cancer; assay type: cell-based, human; conditions: non-small lung cancer (A549/ATCC, HOP-18, NCI-H460)
Description: as §1

[4] = tested on: P388 murine lymphocytic leukemia; assay: in vitro PS leukemia cell growth inhibition (NCI P388 protocol); assay type: cell-based; conditions: Mus musculus, isolated pure compounds, read-out: PS ED₅₀
Description: In early research devoted to the first systematic investigation of marine animals as new sources of potential anticancer drugs the phylum Porifera rapidly became of increasing importance. Subsequent detection of antineoplastic activity in some of these sponge species led to the isolation of such cell growth inhibitory compounds, as macrocyclic lactones, pyrroles, peptides, and proteins. Meanwhile the isolation of heterocyclic marine sponge constituents such as pyrroles, imidazoles, oxazoles, indoles, pyridines, quinolizidines, pteridines, acridines, other nitrogen systems and quinones has been rapidly accelerating. So far ten isoquinolinequinones have been isolated from blue species of the sponge genera Reniera and Xestospongia. In 1986 an exploratory survey of marine Porifera off remote islands in the Republic of the Maldives was conducted which located a deep blue colored specimen of Cribrochalina sp. (Haplosclerida order) that afforded an orange ethanol extract. The encrusting sponge was found in areas of strong (and dangerous) currents to -45m in the South side of East reef passages and yielded and ethanol extract that provided 40% life extension (at mg/kg) against the U.S. National Cancer Institute's in vivo murine P388 lymphocytic leukemia (PS system). […]

colon cancer (CoLo 205) = assay: NCI panel cell lines, colon cancer; assay type: cell-based, human
Description: as §1

CC1=C(N)C(=O)c2c(ccnc2C)C1=O [Cribrostatin 1]
LC₅₀ [1]: 10⁻⁵ - 10⁻⁶ | sensitivity relative to panel mean ([1]; all nine melanoma lines of the 60 cell line panel): sensitivity greater than the panel mean | result in NCI panel cell line ([1]; melanoma (MALME-3M, M14, M19-MEL, SK-MEL-2, SK-MEL-28, UACC-257, UACC-62)): especially favorable results | cytostatic properties [2]: cytostatic properties | result in NCI panel cell line [3]: especially favorable results | IC50 [4]: 1.58 µg/mL (≈ 7.81 µM) | result in NCI panel cell line (colon cancer (CoLo 205)): especially favorable results

CCOC1=C(C)C(=O)c2cc(=O)n(C)cc2C1=O [Cribrostatin 2]
cytostatic properties [2]: cytostatic properties | IC50 [4]: 2.73 µg/mL (≈ 11 µM)
